Patent US20050261246A1, “Methods for treating inflammatory and autoimmune diseases” (priority 2004, published 2005)

What was measured:
arthritic rats = settings: cited from earlier work
[1] = test system: TNF-α production by macrophages; settings: LPS- or bacteria-induced; cited from earlier work
[2] = healthy mice; cited from earlier work
Japanese encephalitis = settings: flavivirus infection; cited from earlier work
[3] = test system: Encephalitozoan intestinalis; settings: cited from earlier work
[4] = test system: VEGF production in human cancer cell lines; assay: VEGF production in human cancer cell lines (ELISA); type: cell-based
Experimental: (A) Effect of SNS on VEGF production was analyzed in two cancer cell lines (both supernatants and cell lysates). (B) The supernatant from control and drug treated H460 cells was analyzed for the level of VEGF (pg/ml). C. […] Statistical analyses were performed using one-way ANOVA.
As discussed above, SNS and pancratastatin were originally synthesized as an anti-cancer agent. The inventors also examined the effect of SNS and pancratastatin on the production of VEGF in human cancer cell lines (FIG. 2). […] This analysis had been performed at least 3-5 times depending on the cell lines and drug used, with statistical analysis performed using one-way ANOVA.

tumor growth = settings: cited from earlier work

SMILES | footpad volumes, severe chronic inflammation (arthritic rats; day 21 post-CFA challenge, treated vs untreated arthritic rats) | inflammation, acute phase (arthritic rats; given from the time of CFA challenge, day 14 post-CFA challenge) | TNF-α production by macrophages [1] | growth rate [2] | survival rate (Japanese encephalitis) | activity against the parasite [3] | VEGF production, narcistatin compared with pancratistatin [4] | effect on VEGF production/secretion ([4]; human cancer cell lines, ELISA) | potency in inhibiting tumor growth relative to SNS (tumor growth)
O=C1N[C@@H]2C(=C[C@H](O)[C@@H](O)[C@H]2O)c2cc3c(c(O)c21)OCO3 [narciclasine] | no differences in their footpad volumes | able to inhibit inflammation during the acute inflammatory phase | inhibits lipopolysaccharide (LPS)- or bacteria-induced production of TNF-α by macrophages | inhibits the growth rate of healthy mice |  |  |  |  | 
O=C1N[C@H]2[C@H](O)[C@H](O)[C@@H](O)[C@H](O)[C@@H]2c2cc3c(c(O)c21)OCO3 [pancratistatin] |  |  |  |  | up to 100% | activity against the parasite Encephalitozoan intestinalis | comparable inhibition on VEGF production | inhibitory effect | more potent than SNS in inhibiting tumor growth
